In patent publication US20260250290A1 (BRISTOL-MYERS SQUIBB COMPANY, priority 2023, published 2026):

These compounds were tested against T1, full length SGK1 (Homo sapiens, UniProt O00141) (assay: SGK1 inhibition Assay A (Caliper LabChip electrophoretic separation of fluorescent peptide substrate and phosphorylated product)). Details: Assay A; 20 μM ATP, 40 min incubation; read-out: SGK1 IC50.
T1 construct: 125 μM full length SGK1 (Life Technologies Part #PR7358A); purchased Life Technologies PR7358A
T1 sequence (O00141 1-431): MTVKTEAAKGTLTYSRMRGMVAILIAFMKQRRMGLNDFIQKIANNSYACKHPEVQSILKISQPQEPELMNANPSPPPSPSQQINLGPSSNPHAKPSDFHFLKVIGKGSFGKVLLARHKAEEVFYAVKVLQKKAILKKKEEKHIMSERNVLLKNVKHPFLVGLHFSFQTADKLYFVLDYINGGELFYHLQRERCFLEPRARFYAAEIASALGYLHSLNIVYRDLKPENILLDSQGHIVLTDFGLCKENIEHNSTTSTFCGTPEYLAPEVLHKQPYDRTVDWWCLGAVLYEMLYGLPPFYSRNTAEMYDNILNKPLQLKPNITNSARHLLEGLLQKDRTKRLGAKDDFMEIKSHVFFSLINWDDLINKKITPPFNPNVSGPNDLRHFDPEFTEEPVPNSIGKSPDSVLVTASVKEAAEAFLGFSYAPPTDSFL
Format: biochemical

Q: For CN1CCC(c2cc(C(F)F)sc2C(=O)N[C@@H]2CCCN(c3cc(-c4ccc(C#N)nc4)n4ncnc(N)c34)C2)C1 (stereo partly drawn) [Example 401, N-((R)-1-(4-amino-7-(6-cyanopyridin-3-yl)pyrrolo [2,1-f][1,2,4]triazin-5-yl)piperidin-3-yl)-5-(difluoromethyl)-3-(1-methylpyrrolidin-3-yl)thiophene-2-carboxamide], which IC50 is on record?
A: 250 nM

Q: Which IC50 does the source give for CN1CCC(c2cc(C(F)F)sc2C(=O)N[C@@H]2CCCN(c3cc(-c4ccc(C(N)=O)nc4)n4ncnc(N)c34)C2)C1 (stereo partly drawn) [Example 402, 5-(4-amino-5-((3R)-3-(5-(difluoromethyl)-3-(1-methylpyrrolidin-3-yl)thiophene-2-carboxamido)piperidin-1-yl)pyrrolo[2,1-f][1,2,4]triazin-7-yl)picolinamide] here?
A: 219 nM

Q: With CC(C)N1CCC(c2cc(C(F)F)sc2C(=O)N[C@@H]2CCCN(c3cc(-c4ccc(C#N)nc4)n4ncnc(N)c34)C2)C1 (stereo partly drawn) [Example 403, N-((R)-1-(4-amino-7-(6-cyanopyridin-3-yl)pyrrolo[2,1-f][1,2,4]triazin-5-yl)piperidin-3-yl)-5-(difluoromethyl)-3-(1-isopropylpyrrolidin-3-yl)thiophene-2-carboxamide] as the compound, how does the IC50 read?
A: 229 nM

Q: With CC(C)N1CCC(c2cc(C(F)F)sc2C(=O)N[C@@H]2CCCN(c3cc(-c4ccc(C(N)=O)nc4)n4ncnc(N)c34)C2)C1 (stereo partly drawn) [Example 404, 5-(4-amino-5-((3R)-3-(5-(difluoromethyl)-3-(1-isopropylpyrrolidin-3-yl)thiophene-2-carboxamido)piperidin-1-yl)pyrrolo[2,1-f][1,2,4]triazin-7-yl)picolinamide] as the compound, how does the IC50 read?
A: 254 nM

Q: Which IC50 does the source give for CC(=O)N1CC=C(c2cc(N3CCC[C@@H](NC(=O)c4sc(C(F)F)cc4C4CCNC4)C3)c3c(N)ncnn23)C1 (stereo partly drawn) [Example 405, N-((R)-1-(7-(1-acetyl-2,5-dihydro-1H-pyrrol-3-yl)-4-aminopyrrolo[2,1-f][1,2,4]triazin-5-yl)piperidin-3-yl)-5-(difluoromethyl)-3-(pyrrolidin-3-yl)thiophene-2-carboxamide] here?
A: 304 nM

Q: CC(=O)N1CC=C(c2cc(N3CCC[C@@H](NC(=O)c4sc(C(F)F)cc4C4CCN(C)C4)C3)c3c(N)ncnn23)C1 (stereo partly drawn) [Example 406, N-((R)-1-(7-(1-acetyl-2,5-dihydro-1H-pyrrol-3-yl)-4-aminopyrrolo[2,1-f][1,2,4]triazin-5-yl)piperidin-3-yl)-5-(difluoromethyl)-3-(1-methylpyrrolidin-3-yl)thiophene-2-carboxamide] was tested. Which IC50 did it give?
A: 309 nM

Q: CC(=O)N1CC=C(c2cc(N3CCC[C@@H](NC(=O)c4sc(C(F)F)cc4C4CCN(C(C)C)C4)C3)c3c(N)ncnn23)C1 (stereo partly drawn) [Example 407, N-((R)-1-(7-(1-acetyl-2,5-dihydro-1H-pyrrol-3-yl)-4-aminopyrrolo[2,1-f][1,2,4]triazin-5-yl)piperidin-3-yl)-5-(difluoromethyl)-3-(1-isopropylpyrrolidin-3-yl)thiophene-2-carboxamide] was tested. Which IC50 did it give?
A: 322 nM

Q: For CCN(CC)CCOc1cc(C(F)F)sc1C(=O)N[C@@H]1CCCN(c2cc(C3=CCN(C(=O)OC)C3)n3ncnc(N)c23)C1 [Example 408, methyl (R)-3-(4-amino-5-(3-(3-(2-(diethylamino)ethoxy)-5-(difluoromethyl)thiophene-2-carboxamido)piperidin-1-yl)pyrrolo[2,1-f][1,2,4]triazin-7-yl)-2,5-dihydro-1H-pyrrole-1-carboxylate], which IC50 is on record?
A: 22 nM

Q: For CCN(CC)CCOc1cc(C(F)F)sc1C(=O)N[C@@H]1CCCN(c2cc(C3=CCN(C(C)=O)C3)n3ncnc(N)c23)C1 [Example 409, (R)-N-(1-(7-(1-acetyl-2,5-dihydro-1H-pyrrol-3-yl)-4-aminopyrrolo[2,1-f][1,2,4]triazin-5-yl)piperidin-3-yl)-3-(2-(diethylamino)ethoxy)-5-(difluoromethyl) thiophene-2-carboxamide], which IC50 is on record?
A: 24 nM

Q: How did the IC50 turn out when CCN(CC)CCOc1cc(C(F)F)sc1C(=O)N[C@@H]1CCCN(c2cc(-c3cncnc3)n3ncnc(N)c23)C1 [Example 410, (R)-N-(1-(4-amino-7-(pyrimidin-5-yl)pyrrolo[2,1-f] [1,2,4]triazin-5-yl)piperidin-3-yl)-3-(2-(diethylamino)ethoxy)-5-(difluoromethyl) thiophene-2-carboxamide] was run?
A: 198 nM

Q: With COC(=O)N1CC=C(c2cc(N3CCC[C@@H](NC(=O)c4sc(C(F)F)cc4OC4CCN(C(C)=O)CC4)C3)c3c(N)ncnn23)C1 [Example 411, methyl (R)-3-(5-(3-(3-((1-acetylpiperidin-4-yl)oxy)-5-(difluoromethyl)thiophene-2-carboxamido)piperidin-1-yl)-4-aminopyrrolo[2,1-f][1,2,4]triazin-7-yl)-2,5-dihydro-1H-pyrrole-1-carboxylate] as the compound, how does the IC50 read?
A: 5 nM

Q: Which IC50 does the source give for CC(=O)N1CCC(Oc2cc(C(F)F)sc2C(=O)N[C@@H]2CCCN(c3cc(C4=CCN(C(C)=O)C4)n4ncnc(N)c34)C2)CC1 [Example 412, (R)-N-(1-(7-(1-acetyl-2,5-dihydro-1H-pyrrol-3-yl)-4-aminopyrrolo[2,1-f][1,2,4]triazin-5-yl)piperidin-3-yl)-3-((1-acetylpiperidin-4-yl)oxy)-5-(difluoromethyl)thiophene-2-carboxamide] here?
A: 50 nM

Q: CC(=O)N1CCC(Oc2cc(C(F)F)sc2C(=O)N[C@@H]2CCCN(c3cc(-c4cncnc4)n4ncnc(N)c34)C2)CC1 [Example 413, (R)-3-((1-acetylpiperidin-4-yl)oxy)-N-(1-(4-amino-7-(pyrimidin-5-yl)pyrrolo[2,1-f][1,2,4]triazin-5-yl)piperidin-3-yl)-5-(difluoromethyl)thiophene-2-carboxamide] was tested. Which IC50 did it give?
A: 113 nM

Q: CC(=O)N1CCC(Oc2cc(C(F)F)sc2C(=O)N[C@@H]2CCCN(c3cc(-c4ccc(=O)n(CC(F)F)c4)n4ncnc(N)c34)C2)CC1 [Example 414, (R)-3-((1-acetylpiperidin-4-yl)oxy)-N-(1-(4-amino-7-(1-(2,2-difluoroethyl)-6-oxo-1,6-dihydropyridin-3-yl)pyrrolo[2,1-f][1,2,4]triazin-5-yl)piperidin-3-yl)-5-(difluoromethyl)thiophene-2-carboxamide] was tested. Which IC50 did it give?
A: 11 nM

Q: CC(=O)N1CCC(Oc2cc(C(F)F)sc2C(=O)N[C@@H]2CCCN(c3cc(-c4cnc(C#N)c(C)c4)n4ncnc(N)c34)C2)CC1 [Example 415, (R)-3-((1-acetylpiperidin-4-yl)oxy)-N-(1-(4-amino-7-(6-cyano-5-methylpyridin-3-yl)pyrrolo[2,1-f][1,2,4]triazin-5-yl)piperidin-3-yl)-5-(difluoromethyl)thiophene-2-carboxamide] was tested. Which IC50 did it give?
A: 8 nM

Q: Which IC50 does the source give for CC(=O)N1CCC(Oc2cc(C(F)F)sc2C(=O)N[C@@H]2CCCN(c3cc(-c4ccc(C#N)nc4)n4ncnc(N)c34)C2)CC1 [Example 416, (R)-3-((1-acetylpiperidin-4-yl)oxy)-N-(1-(4-amino-7-(6-cyanopyridin-3-yl)pyrrolo[2,1-f][1,2,4]triazin-5-yl)piperidin-3-yl)-5-(difluoromethyl)thiophene-2-carboxamide] here?
A: 29 nM

Q: How did the IC50 turn out when COC(=O)N1CC=C(c2cc(N3CCC[C@@H](NC(=O)c4sc(Cl)cc4OCC(=O)N4CCCC4)C3)c3c(N)ncnn23)C1 [Example 418, Methyl (R)-3-(4-amino-5-(3-(5-chloro-3-(2-oxo-2-(pyrrolidin-1-yl)ethoxy)thiophene-2-carboxamido)piperidin-1-yl)pyrrolo[2,1-f][1,2,4]triazin-7-yl)-2,5-dihydro-1H-pyrrole-1-carboxylate] was run?
A: 108 nM

Q: Nc1ncnn2c(-c3cncnc3)cc(N3CCC[C@@H](NC(=O)c4sc(Cl)cc4OCC(=O)N4CCCC4)C3)c12 [Example 419, (R)-N-(1-(4-amino-7-(pyrimidin-5-yl)pyrrolo[2,1-f][1,2,4]triazin-5-yl)piperidin-3-yl)-5-chloro-3-(2-oxo-2-(pyrrolidin-1-yl)ethoxy) thiophene-2-carboxamide] was tested. Which IC50 did it give?
A: 120 nM

Q: With N#Cc1ccc(-c2cc(N3CCC[C@@H](NC(=O)c4sc(Cl)cc4OCC(=O)N4CCCC4)C3)c3c(N)ncnn23)cn1 [Example 420, (R)-N-(1-(4-amino-7-(6-cyanopyridin-3-yl)pyrrolo[2,1-f][1,2,4]triazin-5-yl)piperidin-3-yl)-5-chloro-3-(2-oxo-2-(pyrrolidin-1-yl)ethoxy) thiophene-2-carboxamide] as the compound, how does the IC50 read?
A: 13 nM

Q: For Cc1cc(-c2cc(N3CCC[C@@H](NC(=O)c4sc(Cl)cc4OCC(=O)N4CCCC4)C3)c3c(N)ncnn23)cnc1C#N [Example 421, (R)-N-(1-(4-amino-7-(6-cyano-5-methylpyridin-3-yl)pyrrolo[2,1-f][1,2,4]triazin-5-yl)piperidin-3-yl)-5-chloro-3-(2-oxo-2-(pyrrolidin-1-yl)ethoxy) thiophene-2-carboxamide], which IC50 is on record?
A: 11 nM

Q: How did the IC50 turn out when Nc1ncnn2c(-c3ccc(=O)n(CC(F)F)c3)cc(N3CCC[C@@H](NC(=O)c4sc(Cl)cc4OCC(=O)N4CCCC4)C3)c12 [Example 422, (R)-N-(1-(4-amino-7-(1-(2,2-difluoroethyl)-6-oxo-1,6-dihydropyridin-3-yl)pyrrolo[2,1-f][1,2,4]triazin-5-yl)piperidin-3-yl)-5-chloro-3-(2-oxo-2-(pyrrolidin-1-yl)ethoxy) thiophene-2-carboxamide] was run?
A: 15 nM

Q: With COC(=O)N1CC=C(c2cc(N3CCC[C@@H](NC(=O)c4sc(C(F)F)cc4OCCNC(C)=O)C3)c3c(N)ncnn23)C1 [Example 423, Methyl (R)-3-(5-(3-(3-(2-acetamidoethoxy)-5-(difluoromethyl)thiophene-2-carboxamido)piperidin-1-yl)-4-aminopyrrolo[2,1-f][1,2,4]triazin-7-yl)-2,5-dihydro-1H-pyrrole-1-carboxylate] as the compound, how does the IC50 read?
A: 30 nM
